According to patent US20250255791A1, “POWDER COSMETIC CONTAINING ULTRAVIOLET WAVELENGTH-CONVERTING SUBSTANCE, AND METHOD FOR PRODUCING SAME” (Shiseido Company, Ltd., priority 2019, published 2025):

Legend:
Human dermal fibroblasts [1] = experiment: Experiment 2: influence of C-phycocyanin concentration and UV intensity on cell activity (AlamarBlue); format: cell-based; conditions: UV 0-100 mJ/cm^2, FIG. 3
Experimental: (§1) A cell sample was prepared as follows: 1. Human dermal fibroblasts and human skin keratinocytes purchased from Kurabo Industries Ltd. were used. A cell suspension (1 mL) stored in liquid nitrogen was thawed in a water bath (37° C.) to an extent that small ice pellets remained, and then diluted with 9 mL of warm medium. 2. The diluted suspension was mixed gently and then transferred to a T75 flask and incubated overnight at 37° C. 3. The next day, the medium was replaced with 10 mL of fresh medium. 4. The medium was replaced periodically (once every 2 days for fibroblasts and once every 2 to 3 days for keratinocytes) and cell proliferation was continued. Meanwhile, the cells were observed using a microscope, and it was confirmed that the cells grew in the correct form. 5. After the cells reached about 80% confluence, the cells were passaged. The cells were passaged by washing the cells once with 10 mL of warm PBS, adding 5 mL of warm trypsin to a T75 flask, covering the bottom of the flask with a trypsin solution, followed by aspirating at room temperature for 1 minute. 6. The flask was allowed to stand in an oven at 37° C. for (maximum) 2 minutes for fibroblasts and (maximum) 7 minutes for keratinocytes. The cells were observed using a microscope and confirmed to be small and oval. 7. Thereafter, the side of the T75 flask was lightly tapped to release the cells. […]

Human dermal fibroblasts [2] = experiment: Experiment 3: restoration of cell activity decreased by prior UV irradiation (AlamarBlue); format: cell-based; conditions: pre-irradiation 400 mJ/cm^2 without substance, then UV 0-200 mJ/cm^2 through 0.4% or 2% solution; FIG. 5
Experimental: as §1

Question: What does the source list for C-phycocyanin?
Answer: cell activity (relative fluorescence intensity) on UV irradiation (Human dermal fibroblasts [1]; 0.4% C-phycocyanin solution): the decrease in cell activity was suppressed; cell activity (relative fluorescence intensity) on UV irradiation versus no UV irradiation (Human dermal fibroblasts [1]; 2% C-phycocyanin solution): the cell activity was even increased; cell activity of cells whose activity was once decreased by UV irradiation (Human dermal fibroblasts [2]): cell activity was recovered
